{"source": "the supplement of paper PMC8882468"}
{"tested_on": "HCI-002 (organoid from a triple-negative breast cancer xenograft)", "test": "CTG-3D luminescence at 96 h relative to day-0 seeding control (ratio to day 0); higher = more growth / less cytotoxicity; PDxO 3D drug screen, 96 h, CTG-3D normalised to day-0 seeding control.", "details": "0.005 µM; days in culture: 227"}
{"smiles": "C[C@@H]1COCCN1c1cc(C2([S@](C)(=N)=O)CC2)nc(-c2cc[nH]c3nccc2-3)n1", "note": "[ceralasertib]", "CTG-3D luminescence at 96 h": 5.38}
{"smiles": "CCN1CCN(Cc2ccc(Nc3ncc(F)c(-c4cc(F)c5nc(C)n(C(C)C)c5c4)n3)nc2)CC1", "note": "[abemaciclib]", "CTG-3D luminescence at 96 h": 4.76}
{"smiles": "NC1(C(=O)N[C@@H](CCO)c2ccc(Cl)cc2)CCN(c2nc[nH]c3nccc2-3)CC1", "note": "[capivasertib]", "CTG-3D luminescence at 96 h": 6.13}
{"smiles": "CC(C)n1nc(-c2ccc3oc(N)nc3c2)c2c(N)ncnc21", "note": "[sapanisertib]", "CTG-3D luminescence at 96 h": 4.01}
{"smiles": "O=C(c1ccc(F)c(F)c1Nc1ccc(I)cc1F)N1CC(O)([C@@H]2CCCCN2)C1", "note": "[cobimetinib]", "CTG-3D luminescence at 96 h": 4.79}
{"smiles": "C[C@H](NC(=O)CCC(F)(F)F)C(=O)N[C@@H]1C(=O)N(CCO)c2ncccc2-c2ccccc21", "note": "[crenigacestat]", "CTG-3D luminescence at 96 h": 5.03}
{"smiles": "Cc1cc(Nc2ncc(Cl)c(Nc3ccccc3S(=O)(=O)C(C)C)n2)c(OC(C)C)cc1C1CCNCC1", "note": "[ceritinib]", "CTG-3D luminescence at 96 h": 5.45}
{"smiles": "CS(=O)(=O)c1ccc(C(=O)Nc2ccc(Cl)c(-c3ccccn3)c2)c(Cl)c1", "note": "[vismodegib]", "CTG-3D luminescence at 96 h": 3.59}
{"smiles": "NC(=O)c1cccc2cn(-c3ccc([C@@H]4CCCNC4)cc3)nc12", "note": "[niraparib]", "CTG-3D luminescence at 96 h": 4.64}
{"tested_on": "HCI-002", "test": "CTG-3D luminescence at 96 h relative to day-0 seeding control (ratio to day 0); higher = more growth / less cytotoxicity; PDxO 3D drug screen, 96 h, CTG-3D normalised to day-0 seeding control.", "details": "0.1 µM; days in culture: 62"}
{"smiles": "C[C@@H]1COCCN1c1cc(C2([S@](C)(=N)=O)CC2)nc(-c2cc[nH]c3nccc2-3)n1", "note": "[ceralasertib]", "CTG-3D luminescence at 96 h": 3.04}
{"smiles": "CCN1CCN(Cc2ccc(Nc3ncc(F)c(-c4cc(F)c5nc(C)n(C(C)C)c5c4)n3)nc2)CC1", "note": "[abemaciclib]", "CTG-3D luminescence at 96 h": 1.73}
{"smiles": "NC1(C(=O)N[C@@H](CCO)c2ccc(Cl)cc2)CCN(c2nc[nH]c3nccc2-3)CC1", "note": "[capivasertib]", "CTG-3D luminescence at 96 h": 2.56}
{"smiles": "CC(C)n1nc(-c2ccc3oc(N)nc3c2)c2c(N)ncnc21", "note": "[sapanisertib]", "CTG-3D luminescence at 96 h": 0.903}
{"smiles": "O=C(c1ccc(F)c(F)c1Nc1ccc(I)cc1F)N1CC(O)([C@@H]2CCCCN2)C1", "note": "[cobimetinib]", "CTG-3D luminescence at 96 h": 1.97}
{"smiles": "C[C@H](NC(=O)CCC(F)(F)F)C(=O)N[C@@H]1C(=O)N(CCO)c2ncccc2-c2ccccc21", "note": "[crenigacestat]", "CTG-3D luminescence at 96 h": 2.68}
{"smiles": "Cc1cc(Nc2ncc(Cl)c(Nc3ccccc3S(=O)(=O)C(C)C)n2)c(OC(C)C)cc1C1CCNCC1", "note": "[ceritinib]", "CTG-3D luminescence at 96 h": 2.52}
{"smiles": "CS(=O)(=O)c1ccc(C(=O)Nc2ccc(Cl)c(-c3ccccn3)c2)c(Cl)c1", "note": "[vismodegib]", "CTG-3D luminescence at 96 h": 3.26}
{"smiles": "NC(=O)c1cccc2cn(-c3ccc([C@@H]4CCCNC4)cc3)nc12", "note": "[niraparib]", "CTG-3D luminescence at 96 h": 2.62}
{"tested_on": "HCI-002", "test": "CTG-3D luminescence at 96 h relative to day-0 seeding control (ratio to day 0); higher = more growth / less cytotoxicity; PDxO 3D drug screen, 96 h, CTG-3D normalised to day-0 seeding control.", "details": "0.1 µM; days in culture: 82"}
{"smiles": "C[C@@H]1COCCN1c1cc(C2([S@](C)(=N)=O)CC2)nc(-c2cc[nH]c3nccc2-3)n1", "note": "[ceralasertib]", "CTG-3D luminescence at 96 h": 2.4}
{"smiles": "CCN1CCN(Cc2ccc(Nc3ncc(F)c(-c4cc(F)c5nc(C)n(C(C)C)c5c4)n3)nc2)CC1", "note": "[abemaciclib]", "CTG-3D luminescence at 96 h": 1.98}
{"smiles": "NC1(C(=O)N[C@@H](CCO)c2ccc(Cl)cc2)CCN(c2nc[nH]c3nccc2-3)CC1", "note": "[capivasertib]", "CTG-3D luminescence at 96 h": 2.52}
{"smiles": "CC(C)n1nc(-c2ccc3oc(N)nc3c2)c2c(N)ncnc21", "note": "[sapanisertib]", "CTG-3D luminescence at 96 h": 0.983}
{"smiles": "O=C(c1ccc(F)c(F)c1Nc1ccc(I)cc1F)N1CC(O)([C@@H]2CCCCN2)C1", "note": "[cobimetinib]", "CTG-3D luminescence at 96 h": 1.88}
{"smiles": "C[C@H](NC(=O)CCC(F)(F)F)C(=O)N[C@@H]1C(=O)N(CCO)c2ncccc2-c2ccccc21", "note": "[crenigacestat]", "CTG-3D luminescence at 96 h": 2.78}
{"smiles": "Cc1cc(Nc2ncc(Cl)c(Nc3ccccc3S(=O)(=O)C(C)C)n2)c(OC(C)C)cc1C1CCNCC1", "note": "[ceritinib]", "CTG-3D luminescence at 96 h": 2.46}
{"smiles": "CS(=O)(=O)c1ccc(C(=O)Nc2ccc(Cl)c(-c3ccccn3)c2)c(Cl)c1", "note": "[vismodegib]", "CTG-3D luminescence at 96 h": 2.65}
{"smiles": "NC(=O)c1cccc2cn(-c3ccc([C@@H]4CCCNC4)cc3)nc12", "note": "[niraparib]", "CTG-3D luminescence at 96 h": 2.16}
{"tested_on": "HCI-002", "test": "CTG-3D luminescence at 96 h relative to day-0 seeding control (ratio to day 0); higher = more growth / less cytotoxicity; PDxO 3D drug screen, 96 h, CTG-3D normalised to day-0 seeding control.", "details": "0.1 µM; days in culture: 91"}
{"smiles": "C[C@@H]1COCCN1c1cc(C2([S@](C)(=N)=O)CC2)nc(-c2cc[nH]c3nccc2-3)n1", "note": "[ceralasertib]", "CTG-3D luminescence at 96 h": 3.58}
{"smiles": "CCN1CCN(Cc2ccc(Nc3ncc(F)c(-c4cc(F)c5nc(C)n(C(C)C)c5c4)n3)nc2)CC1", "note": "[abemaciclib]", "CTG-3D luminescence at 96 h": 1.68}
{"smiles": "NC1(C(=O)N[C@@H](CCO)c2ccc(Cl)cc2)CCN(c2nc[nH]c3nccc2-3)CC1", "note": "[capivasertib]", "CTG-3D luminescence at 96 h": 3.73}
{"smiles": "CC(C)n1nc(-c2ccc3oc(N)nc3c2)c2c(N)ncnc21", "note": "[sapanisertib]", "CTG-3D luminescence at 96 h": 1.44}
{"smiles": "O=C(c1ccc(F)c(F)c1Nc1ccc(I)cc1F)N1CC(O)([C@@H]2CCCCN2)C1", "note": "[cobimetinib]", "CTG-3D luminescence at 96 h": 2.74}
{"smiles": "C[C@H](NC(=O)CCC(F)(F)F)C(=O)N[C@@H]1C(=O)N(CCO)c2ncccc2-c2ccccc21", "note": "[crenigacestat]", "CTG-3D luminescence at 96 h": 3.44}
{"smiles": "Cc1cc(Nc2ncc(Cl)c(Nc3ccccc3S(=O)(=O)C(C)C)n2)c(OC(C)C)cc1C1CCNCC1", "note": "[ceritinib]", "CTG-3D luminescence at 96 h": 4.11}
{"smiles": "CS(=O)(=O)c1ccc(C(=O)Nc2ccc(Cl)c(-c3ccccn3)c2)c(Cl)c1", "note": "[vismodegib]", "CTG-3D luminescence at 96 h": 2.06}
{"smiles": "NC(=O)c1cccc2cn(-c3ccc([C@@H]4CCCNC4)cc3)nc12", "note": "[niraparib]", "CTG-3D luminescence at 96 h": 1.74}
{"tested_on": "HCI-002", "test": "CTG-3D luminescence at 96 h relative to day-0 seeding control (ratio to day 0); higher = more growth / less cytotoxicity; PDxO 3D drug screen, 96 h, CTG-3D normalised to day-0 seeding control.", "details": "0.1 µM; days in culture: 191"}
{"smiles": "C[C@@H]1COCCN1c1cc(C2([S@](C)(=N)=O)CC2)nc(-c2cc[nH]c3nccc2-3)n1", "note": "[ceralasertib]", "CTG-3D luminescence at 96 h": 2.66}
{"smiles": "CCN1CCN(Cc2ccc(Nc3ncc(F)c(-c4cc(F)c5nc(C)n(C(C)C)c5c4)n3)nc2)CC1", "note": "[abemaciclib]", "CTG-3D luminescence at 96 h": 1.89}
